Patent US8663658B2, “Revaprazan-containing solid dispersion and process for the preparation thereof” (Yuhan Corporation, priority 2006, dated 2014)
Converted amounts (≈) assume the structure as drawn. Read-outs that look alike come from different tables or passages of the source.

Legend:
[1] = Solubility of revaprazan-containing solid dispersion in purified water; type: physicochemical; settings: thermodynamic from solid, 25° C., solid dispersion containing 1 g revaprazan in 50 ml, stirred up to 6 hours, UV 270 nm
Protocol: Solubility of a revaprazan-containing solid dispersion was measured in purified water. A solid dispersion containing 1 g of revaprazan was added to a beaker containing 50 ml of purified water, which was then strongly stirred using a magnetic stirrer at 25° C. in a water bath for 6 hours. After 1, 2, and 6 hours, each sample was collected and filtered using a 0.45 μm filter. The filtrate was diluted with methanol having such an amount that absorbance of the filtrate is in the range from 0.2 to 1.0. Then, absorbance of the diluted filtrate was measured at 270 nm using a UV spectrophotometer (Agilent 8453, Agilent technologies, USA). From the obtained absorbance value, concentrations of revaprazan were obtained using a standard curve.
About 20 mg of revaprazan standard was dissolved in methanol until the total volume of the solution reached 10 ml. 1 ml of the resultant solution was added to a 100 ml flask and then purified water was added thereto to obtain a standard stock solution. The standard stock solution was diluted with purified water to obtain 2 μg/ml, 5 μg/ml, 8 μg/ml, and 10 μg/ml of standard solution. Each absorbance of the standard solutions was measured at an absorption maximum wavelength of 270 nm to obtain a standard curve. The standard curve was moderately linear passing through almost (0.0) (coefficient of correlation r^2>0.98).

[2] = background art; cited from earlier work
[3] = Adhesiveness and agglutination test (Carr's index from bulk and tapped density); type: physicochemical
Protocol: The bulk density and tapped density of revaprazan powder and the surface-modified solid dispersions prepared according to Examples 3 and 6 were measured and their Carr's indexes were obtained in order to measure flowability thereof. About 3 g of a solid dispersion was carefully added to a plastic measuring cylinder and the volume thereof was measured to obtain the bulk density. And then, this was subjected to tapping 3,000 times using a tapped density meter to measure the volume and the tapped density was obtained. From the obtained bulk density and tapped density, Carr's index was calculated in order to evaluate flowability.

Structure (SMILES): Cc1nc(Nc2ccc(F)cc2)nc(N2CCc3ccccc3C2C)c1C (stereo not shown) [Revaprazan powder, 5,6-dimethyl-2-(4-fluorophenylamino)-4-(1-methyl-1,2,3,4-tetrahydroisoquinolin-2-yl)pyrimidine]
- solubility [1]: 0.173 mg/mL (≈ 477 µM)
- water-solubility [2]: less than 0.2 mg/mL
- Carr's index [3]: ≥ 40%
- Carr's index ([3]; from bulk density and tapped density (3,000 taps), flowability): 41.2
